Drawing on the Kinase Knowledgebase extract (Sharma et al. 2016), this text covers inhibition for 67 compounds.

This test concerns the target CDK2 (UniProt P24941). In words: Enzyme Assay. Conditions: concentration not given here.

In general, inhibition refers to the percentage by which the read-out fell short of the control.

As to `Cc1cc(C)cc(-c2n[nH]c3ccc(NS(=O)(=O)c4ccccc4S(C)(=O)=O)cc23)c1`, the inhibition is 72%.

The compound `CCOc1cccc(-c2n[nH]c3ccc(NS(=O)(=O)c4ccccc4S(C)(=O)=O)cc23)c1` had an inhibition of 60%.

Regarding `CC(=O)Nc1ccc(S(=O)(=O)Nc2ccc3[nH]nc(-c4ccccc4)c3c2)cc1`, the inhibition is 73%.

Compound `COc1ccc2[nH]c(-c3n[nH]c4ccc(NS(=O)(=O)c5ccccc5S(C)(=O)=O)cc34)cc2c1` yielded an inhibition of 100%.

With `CS(=O)(=O)c1ccccc1S(=O)(=O)Nc1ccc2[nH]nc(-c3ccc(-c4ccccc4)c(F)c3)c2c1`, the inhibition was 0%.

Regarding `COC(=O)/C=C/c1n[nH]c2ccc(NS(=O)(=O)c3ccccc3S(C)(=O)=O)cc12`, the inhibition was 37%.

Take `COc1cccc(S(=O)(=O)Nc2ccc3[nH]nc(-c4ccccc4)c3c2)c1`: the inhibition came to 68%.

As to `CS(=O)(=O)c1ccccc1S(=O)(=O)Nc1ccc2[nH]nc(-c3ccc(C#N)cc3)c2c1`, the inhibition is 86%.

`CS(=O)(=O)c1ccccc1S(=O)(=O)Nc1ccc2[nH]nc(-c3cc4ccccc4s3)c2c1` had an inhibition of 63%.

In turn, `CS(=O)(=O)c1ccccc1S(=O)(=O)Nc1ccc2[nH]nc(-c3ccccc3F)c2c1` registered an inhibition of 61%.

As to `O=S(=O)(Nc1ccc2[nH]nc(-c3ccccc3)c2c1)c1cccc2cccnc12`, the inhibition was found to be 99%.

Consider `CS(=O)(=O)c1ccccc1S(=O)(=O)Nc1ccc2[nH]nc(-c3cccc(Cl)c3)c2c1`, for which the inhibition amounted to 80%.

Turning to `Cc1cc(-c2n[nH]c3ccc(NS(=O)(=O)c4ccccc4S(C)(=O)=O)cc23)ccc1F`, the inhibition amounted to 66%.

The compound `O=S(=O)(Nc1ccc2[nH]nc(-c3ccccc3)c2c1)c1ccc(Cl)s1` displayed an inhibition of 65%.

On to `CS(=O)(=O)c1ccccc1S(=O)(=O)Nc1ccc2[nH]nc(NC(=O)c3ccccc3)c2c1`, for which the inhibition came out at 95%.

Regarding `O=S(=O)(Nc1ccc2[nH]nc(-c3ccccc3)c2c1)c1ccc2ccccc2c1`, the inhibition turned out to be 78%.

In the case of `CS(=O)(=O)c1ccccc1S(=O)(=O)Nc1ccc2[nH]nc(-c3ccco3)c2c1`, the inhibition worked out at 76%.

Compound `O=C(O)c1cccc(S(=O)(=O)Nc2ccc3[nH]nc(-c4ccccc4)c3c2)c1` returned an inhibition of 40%.

As to `O=S(=O)(Nc1ccc2[nH]nc(-c3ccccc3)c2c1)c1ccc(F)cc1`, the inhibition worked out at 56%.

`CS(=O)(=O)c1ccccc1S(=O)(=O)Nc1ccc2[nH]nc(-c3ccc(Br)cc3)c2c1` displayed an inhibition of 75%.

Regarding `CS(=O)(=O)c1ccccc1S(=O)(=O)Nc1ccc2[nH]nc(-c3cc4cccnc4[nH]3)c2c1`, the inhibition worked out at 0%.

On to `O=[N+]([O-])c1ccc(S(=O)(=O)Nc2ccc3[nH]nc(-c4ccccc4)c3c2)cc1`, for which the inhibition stood at 50%.

In turn, `O=S(=O)(Nc1ccc2[nH]nc(-c3ccccc3)c2c1)c1ccccc1` returned an inhibition of 84%.

For `Cc1ccccc1S(=O)(=O)Nc1ccc2[nH]nc(-c3ccccc3)c2c1`, the inhibition amounted to 77%.

Compound `CS(=O)(=O)c1ccccc1S(=O)(=O)Nc1ccc2[nH]nc(NCc3ccccc3)c2c1` had an inhibition of 92%.

`CC(=O)Nc1n[nH]c2ccc(NS(=O)(=O)c3cc(F)cc(F)c3)cc12` had an inhibition of 82%.

Take `CS(=O)(=O)c1ccccc1S(=O)(=O)Nc1ccc2[nH]nc(-c3ccc(OC(F)(F)F)cc3)c2c1`: the inhibition is 61%.

The compound `CS(=O)(=O)c1ccccc1S(=O)(=O)Nc1ccc2[nH]nc(-c3ccncc3)c2c1` registered an inhibition of 87%.

Compound `CC(=O)c1ccc(-c2n[nH]c3ccc(NS(=O)(=O)c4ccccc4S(C)(=O)=O)cc23)cc1` yielded an inhibition of 56%.

`O=S(=O)(Nc1ccc2[nH]nc(-c3ccccc3)c2c1)c1cc(F)cc(F)c1` displayed an inhibition of 68%.

As to `Nc1n[nH]c2ccc(NS(=O)(=O)c3cc(F)cc(F)c3)cc12`, the inhibition stood at 0%.

In turn, `O=[N+]([O-])c1ccccc1S(=O)(=O)Nc1ccc2[nH]nc(-c3ccccc3)c2c1` showed an inhibition of 81%.

Compound `CNc1n[nH]c2ccc(NS(=O)(=O)c3ccccc3S(C)(=O)=O)cc12` returned an inhibition of 51%.

Turning to `CS(=O)(=O)c1ccccc1S(=O)(=O)Nc1ccc2[nH]nc(-c3ccc(F)c(Cl)c3)c2c1`, the inhibition worked out at 77%.

On to `CC(C)c1ccc(-c2n[nH]c3ccc(NS(=O)(=O)c4ccccc4S(C)(=O)=O)cc23)cc1`, for which the inhibition came out at 24%.

`Cc1cccc(S(=O)(=O)Nc2ccc3[nH]nc(-c4ccccc4)c3c2)c1` registered an inhibition of 72%.

`CCOc1ccc(-c2n[nH]c3ccc(NS(=O)(=O)c4ccccc4S(C)(=O)=O)cc23)cc1`: the inhibition turned out to be 74%.

`CC(C)c1cccc(-c2n[nH]c3ccc(NS(=O)(=O)c4ccccc4S(C)(=O)=O)cc23)c1` registered an inhibition of 59%.

The compound `CN(C)c1cccc2c(S(=O)(=O)Nc3cccc(-c4n[nH]c5ccc(NS(=O)(=O)c6ccccc6S(C)(=O)=O)cc45)c3)cccc12` returned an inhibition of 20%.

Take `CS(=O)(=O)c1ccccc1S(=O)(=O)Nc1ccc2[nH]nc(-c3cccc(N)c3)c2c1`: the inhibition was 88%.

In the case of `CC(=O)Nc1n[nH]c2ccc(NS(=O)(=O)c3ccccc3S(C)(=O)=O)cc12`, the inhibition was found to be 96%.

With `Nc1n[nH]c2ccc(NS(=O)(=O)c3cccc(F)c3)cc12`, the inhibition came out at 34%.

For the compound `CS(=O)(=O)c1ccccc1S(=O)(=O)Nc1ccc2[nH]nc(-c3ccc(F)cc3F)c2c1`, the inhibition was found to be 83%.

For `CS(=O)(=O)c1ccccc1S(=O)(=O)Nc1ccc2[nH]nc(C#Cc3ccccc3)c2c1`, the inhibition was 90%.

As for `O=S(=O)(Nc1ccc2[nH]nc(-c3ccccc3)c2c1)c1cccs1`, the inhibition worked out at 80%.

`Cc1ccccc1-c1n[nH]c2ccc(NS(=O)(=O)c3ccccc3S(C)(=O)=O)cc12` had an inhibition of 25%.

In turn, `COc1ccc(-c2n[nH]c3ccc(NS(=O)(=O)c4ccccc4S(C)(=O)=O)cc23)c(OC)c1OC` yielded an inhibition of 21%.

For the compound `CS(=O)(=O)c1ccccc1S(=O)(=O)Nc1ccc2[nH]nc(-c3ccc(OCc4ccccc4)cc3)c2c1`, the inhibition is 16%.

For the compound `CS(=O)(=O)c1ccccc1S(=O)(=O)Nc1ccc2[nH]nc(-c3ccc(F)c(F)c3)c2c1`, the inhibition was 72%.

The compound `CN(C)c1cccc2c(S(=O)(=O)Nc3ccc4[nH]nc(-c5ccccc5)c4c3)cccc12` gave an inhibition of 84%.

In turn, `COc1ccc(-c2n[nH]c3ccc(NS(=O)(=O)c4ccccc4S(C)(=O)=O)cc23)cc1OC` gave an inhibition of 76%.

In turn, `CS(=O)(=O)c1ccccc1S(=O)(=O)Nc1ccc2[nH]nc(Sc3ccccc3)c2c1` displayed an inhibition of 82%.

`CS(=O)(=O)c1ccccc1S(=O)(=O)Nc1ccc2[nH]nc(-c3ccoc3)c2c1` showed an inhibition of 80%.

Regarding `O=S(=O)(Nc1ccc2[nH]nc(-c3ccccc3)c2c1)c1cccc2ccccc12`, the inhibition was determined as 90%.

Turning to `CS(=O)(=O)c1ccccc1S(=O)(=O)Nc1ccc2[nH]nc(-c3cc(Br)cc(Br)c3)c2c1`, the inhibition stood at 45%.

`CS(=O)(=O)c1ccccc1S(=O)(=O)Nc1ccc2[nH]nc(-c3ccc(F)cc3)c2c1` had an inhibition of 94%.

`CS(=O)(=O)c1ccccc1S(=O)(=O)Nc1ccc2[nH]nc(-c3nc4ccccc4[nH]3)c2c1` displayed an inhibition of 99%.

In the case of `CS(=O)(=O)c1ccc(S(=O)(=O)Nc2ccc3[nH]nc(-c4ccccc4)c3c2)cc1`, the inhibition worked out at 50%.

In turn, `CS(=O)(=O)c1ccccc1S(=O)(=O)Nc1ccc2[nH]nc(-c3cccc4c3oc3ccccc34)c2c1` displayed an inhibition of 13%.

In turn, `CS(=O)(=O)c1ccccc1S(=O)(=O)Nc1ccc2[nH]nc(-c3ccc[nH]3)c2c1` yielded an inhibition of 99%.

Consider `CS(=O)(=O)c1ccccc1S(=O)(=O)Nc1ccc2[nH]nc(-c3ccc(C(F)(F)F)cc3)c2c1`, for which the inhibition came to 83%.

`CS(=O)(=O)c1ccccc1S(=O)(=O)Nc1ccc2[nH]nc(/C=C/c3ccc(Cl)cc3)c2c1` registered an inhibition of 96%.

`Nc1cc(Cl)cc(Cl)c1S(=O)(=O)Nc1ccc2[nH]nc(-c3ccccc3)c2c1` displayed an inhibition of 58%.

In turn, `Nc1n[nH]c2ccc(NS(=O)(=O)c3c(Cl)cccc3Cl)cc12` displayed an inhibition of 18%.

For `O=S(=O)(Nc1ccc2[nH]nc(-c3ccccc3)c2c1)c1ccccc1C(F)(F)F`, the inhibition stood at 81%.

For the compound `CS(=O)(=O)c1ccccc1S(=O)(=O)Nc1ccc2[nH]nc(-c3cc4ccccc4o3)c2c1`, the inhibition turned out to be 93%.

As to `CCCNC(=O)c1n[nH]c2ccc(NS(=O)(=O)c3ccccc3S(C)(=O)=O)cc12`, the inhibition stood at 96%.
